The target in experiment [1] is proteins of U3A human fibrosarcoma cells (4462 proteins detected) (Homo sapiens, UniProt O76021). Format: cell-based. Particulars: protein RSL1D1; soluble abundance after heat, U3A cells.
Experiment [2] addresses proteins of U3A human fibrosarcoma cells (4462 proteins detected) (Homo sapiens, UniProt P50213). It is filed as cell-based. The note with it: protein IDH3A; U3A cells.

Sequence of proteins of U3A human fibrosarcoma cells (4462 proteins detected) (Homo sapiens, UniProt P50213) (P50213 28-366): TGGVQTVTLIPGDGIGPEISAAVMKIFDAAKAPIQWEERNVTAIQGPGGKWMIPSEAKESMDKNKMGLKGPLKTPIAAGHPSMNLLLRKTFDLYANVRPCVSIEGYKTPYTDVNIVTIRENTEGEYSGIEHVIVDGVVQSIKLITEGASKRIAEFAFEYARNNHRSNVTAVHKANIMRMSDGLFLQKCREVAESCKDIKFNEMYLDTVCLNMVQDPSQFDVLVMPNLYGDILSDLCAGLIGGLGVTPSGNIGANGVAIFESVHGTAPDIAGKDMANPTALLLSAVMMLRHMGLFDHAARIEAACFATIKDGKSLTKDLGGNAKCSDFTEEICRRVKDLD

Regarding `CCc1nc(N)nc(N)c1-c1ccc(Cl)cc1` [pyrimethamine], the “Log2 (PYR/DMSO)” value amounted to 0.14 in experiment [1] and 0.16 in experiment [2].

Source of the values: PMC8800111 (The Journal of Biological Chemistry, 2021).
